Measured values: US12115193B2, “Methods of using RARγ agonists for cancer treatment” (Io Therapeutics, Inc., priority 2021, dated 2024)

How the values were obtained:
[1] = test system: Lewis lung carcinoma (LLC) cells; assay: Lewis lung carcinoma in vitro culture viability, Cell Titer Glo Assay; assay type: cell-based, mouse; conditions: for IC50: Mus musculus, Lewis lung carcinoma
Experimental: Lewis lung carcinoma (LLC) cells were cultured in vitro the presence of a multiple concentrations of the RARγ agonists GA1E, GA2E, and GA3Ep and viability assessed by the Cell Titer Glo Assay®.

EMT6 cells [2] = assay: EMT6 in vitro culture viability, Cell Titer Glo Assay; assay type: cell-based, mouse; conditions: 5 days; for IC50: Mus musculus, 120 h
Experimental: EMT6 cells were cultured in vitro for 5 days the presence of a multiple concentrations of the RARγ agonists GA1E, GA2E, and GA3Ep and viability assessed by the Cell Titer Glo Assay® (Promega).

PBMC = assay: CMV recall antigen-stimulated PBMC: IFNγ production and CFSE proliferation; assay type: cell-based; conditions: four days, vs vehicle control; for IFNγ production: 0.1 to 1000 nM; for Proliferation of CD8+ cells (CFSE dilution): increase small
Experimental: Peripheral blood mononuclear cells (PBMC) from a cytomegalovirus (CMV)-positive donor were labeled with carboxyfluorescein succinimidyl ester (CFSE) and stimulated with CMV recall antigens at […]. The PBMC were then treated with one of three difference RARγ selective agonists or vehicle (DMSO) control and incubated at 37° C., 5% CO2 for four days. Culture supernatant was harvested and assayed for IFNγ production and the PBMC evaluated for proliferation by flow cytometry for CFSE dilution.
CFSE is a fluorescent reactive cell membrane permeable dye. After it is taken up, CFSE covalently modifies proteins and is retained in cells for long periods of time. The CFSE-modified proteins are generally evenly divided between daughter cells at each division so that fluorescent intensity of the cells falls by have at each division. Thus diminution of the dye's fluorescent signal can be used as a measure of proliferation.

EMT6 cells [3] = assay: EMT6 syngeneic mouse model of triple negative breast cancer (Example 3); assay type: in vivo; conditions: 21 daily oral doses 10 mg/kg; at the end of the study
Experimental: The RARγ agonists tazarotenic acid and GA2E were evaluated in the EMT6 syngeneic mouse model of breast cancer. 5×10^5 EMT6 cells were injected into the mammary fat pad of immunocompetent female Balb/c mice. When the tumors reached an average volume of 50-150 mm^3, mice were matched by tumor size into control or treatment groups (n=10-11).
The mice were treated with 21 daily oral doses 10 mg/kg of 1 mg/ml tazarotenic acid or GA2E, or vehicle control, starting on Day 0. Tumor volume was measured, and the mice weighed, on days 0, 1, 3, 6, 8, 10, 13, 15, 17, 20, and 21.

TIL in EMT6 tumors = assay: Flow cytometry of excised EMT6 tumors (Example 4); assay type: in vivo, mouse
Source text: At the end of the study of Example 3, the tumors were excised, the cells disaggregated and dispersed without use of proteases, stained with various agents, and subjected to flow cytometry. FIG. 5A-B present the results of the flow cytometry both as a percentage of cells and as the number of cells per tumor. […] Of these live cells, a substantial proportion were leukocytes (FIG. 5A, “CD45” panels). […] The majority of the T cells were CD4+(FIG. 5A, “CD4” panels), expected to be predominantly helper cells. Of the CD4^+ cells, only small proportions were T memory cells (expected to be predominantly TH1 memory cells) based on intracellular staining for IFNγ (FIG. 5B, “TH IFGγ” panels), TH17 cells based in intracellular staining for IL-17 (FIG. 5B, “TH IL17” panels), or Treg cell based on staining for CD25 and FoxP3 (FIG. 5B, “Treg” panels). About 25-30% of the T cells were CD8^+ (FIG. 5B, “CD8 T” panels), expected to be predominantly cytotoxic cells.

RARγ = target: T1, RARγ (Homo sapiens, UniProt P13631); assay: RARγ transactivation assay (luciferase reporter); assay type: cell-based
T1 construct: expression plasmids encoding the full-length receptors RARα and RARγ; expressed in transfected cells
T1 sequence (P13631 1-454): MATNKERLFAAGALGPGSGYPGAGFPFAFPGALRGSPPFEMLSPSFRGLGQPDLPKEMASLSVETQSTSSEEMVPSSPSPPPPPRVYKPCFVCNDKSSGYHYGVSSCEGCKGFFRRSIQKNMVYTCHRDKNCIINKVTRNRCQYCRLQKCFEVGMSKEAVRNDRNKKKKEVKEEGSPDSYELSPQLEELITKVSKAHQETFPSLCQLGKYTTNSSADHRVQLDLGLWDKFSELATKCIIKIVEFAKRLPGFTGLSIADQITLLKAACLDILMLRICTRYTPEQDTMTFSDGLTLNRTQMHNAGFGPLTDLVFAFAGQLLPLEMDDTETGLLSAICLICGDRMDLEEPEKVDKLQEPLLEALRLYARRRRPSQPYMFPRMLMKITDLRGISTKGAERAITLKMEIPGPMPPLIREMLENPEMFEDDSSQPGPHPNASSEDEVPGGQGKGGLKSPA
Experimental: Transactivation assays were conducted to test the specificity of binding activity of GA1E and GA2E for RARα and RARγ. Retinoic acid receptor transactivation activity and binding efficiencies were determined essentially as described in U.S. Pat. Nos. 5,298,429 and 5,071,773, incorporated by reference herein for all they teach regarding transactivation assays. Transactivation assays employed expression plasmids encoding the full-length receptors RARα and RARγ. Reporter plasmids containing the herpes virus thymidine kinase promoter and the appropriate retinoic acid receptor response element (RAREs) were positioned upstream of an open coding region encoding firefly luciferase.
The ability of GA1E and GA2E to activate RARα and RARγ in a transactivation assay was tested over a concentration range of 0.5 to 625 nM (GA2E) or 0.05 to 3320 nM (GA1E). GA1E induced less than 10% transactivation for RARα across the whole concentration range, but over 50% transactivation for RARγ at concentrations ≥25 nM and over 70% at concentrations 125 nM (FIG. 3A). GA2E induced more than 85% transactivation at all tested concentrations and less than 10% transactivation of RARα at concentrations of ≤25 nM (FIG. 3B).

## CC1(C)CCC(C)(C)c2cc(C(/C=C/c3ccc(C(=O)O)cc3)=N/O)ccc21 [GA3Ep]
[1]
  effect on viability as concentrations exceeded 10 μM: rapidly became toxic
  effect on viability at concentrations below 1 μM: no effect
  IC50: 45 µM
EMT6 cells [2]
  effect on viability as concentrations exceeded 10 μM: rapidly became toxic
  effect on viability at concentrations below 1 μM: no effect
  IC50: 101 µM
PBMC
  IFNγ production: increased IFNγ production substantially
  Proliferation of CD8+ cells (CFSE dilution): increased

## CC1(C)CCSc2ccc(C#Cc3ccc(C(=O)O)cn3)cc21 [tazarotenic acid, reference compound]
EMT6 cells [3]
  tumor growth inhibition: 44%
TIL in EMT6 tumors; 10 mg/kg oral daily, end of study
  T cells (anti-CD3) as mean percentage of the leukocytes in the tumor: ~10%
TIL in EMT6 tumors; vs vehicle control, did not achieve statistical significance
  proportion of CD8+ T cells that were memory cells (intracellular IFNγ): numerically increased
PBMC
  IFNγ production: increased IFNγ production substantially
  Proliferation of CD8+ cells (CFSE dilution): increased

## CCc1oc2ccc(C(/C=C/c3ccc(C(=O)O)cc3F)=N/O)cc2c1C(C)(C)C [GA1E, 4-((1E,3E)-3-(3-(tert-butyl)-2-ethyl-benzofuran-5-yl)-3-(hydroxyimino)prop-1-en-1-yl)-3-fluorobenzoic acid]
[1]
  effect on viability as concentrations exceeded 10 μM: rapidly became toxic
  effect on viability at concentrations below 1 μM: no effect
  IC50: 96 µM
EMT6 cells [2]
  effect on viability as concentrations exceeded 10 μM: rapidly became toxic
  effect on viability at concentrations below 1 μM: no effect
  IC50: 52 µM
RARγ; at concentrations 125 nM
  transactivation for RARγ: over 70%
RARγ; at concentrations ≥25 nM
  transactivation for RARγ: over 50%
